# Reference: patent publication US10414739B2, “Compounds as inhibitors of the YAP/TAZ-TEAD interaction and their use in the treatment of malignant mesothelioma” (INVENTIVA, priority 2015, dated 2019)
# Counter-ions that a name gives are not always drawn.
# Molecular target: T1, YAP-TEAD interaction (human YAP2-His6 (50-114) / human TEAD1-GST (209-426)) (Homo sapiens, UniProt P28347)
# T1 construct: GST-TEAD1 (209-426) produced in E. coli; made in house; host or cells: E. coli
# Assay: YAP-TEAD AlphaLISA assay
# Type: binding
# Settings: for Emax: 2 h, maximal % inhibition, read-out: Max Act.; for Emax / IC50: YAP-TEAD AlphaLISA; for IC50: 2 h equilibration at room temperature
# Procedure: YAP-TEAD AlphaLISA Assay for IC50 Value Determination.
# YAP-TEAD binding and inhibition was assessed by monitoring the engagement of YAP2 peptide (human YAP2-His6 (50-114) produced in E. coli) with TEAD (human TEAD1-GST (GST-TEAD1 (209-426) produced in E. coli) using the AlphaLisa technology (Perkin-Elmer). Specifically, in a 384 well (Axygen) 5 μl of compounds were dispensed in 100% DMSO following a semi log serial dilution, with a top concentration of […] (10 concentrations). A ‘3 partners solution’ was prepared by mixing AlphaScreen Glutathione Donor beads 15 μg/ml (PerkinElmer), Anti-6×His AlphaLisA Acceptor beads 15 μg/ml (PerkinElmer) and Human YAP2 9 nM in 100 mM NaCl, 25 mM Hepes, 0.1% BSA, 0.5% NoNidet®P40 buffer. In the 384 assay plate (Proxiplate, Perkin-Elmer)) 2 μl of compound at each concentration, 6 μl of buffer, 6 μl of hTEAD1-GST 9 nM and 6 μl of ‘3 partner solution’ were mixed. After 2 h equilibration at room temperature in the dark the plates were read on an Envision instrument (Excitation @ 680 nm/Emission @ 570 nm, Perkin Elmer).
# Results were expressed as % inhibition=100×((HighControl−Cpd)/(HighControl−LowControl)), were High control is the maximum response obtained with all components and Low control is the basal response obtained with all components without GST-Tead1.
# Cpd is the response obtained for test compounds.
# IC50 (half maximal inhibitory concentration) was determined by fitting the concentration response curves using a 3-parameter curve fit equation and determining concentration corresponding to 50% inhibition.
# T1 sequence (P28347 209-426): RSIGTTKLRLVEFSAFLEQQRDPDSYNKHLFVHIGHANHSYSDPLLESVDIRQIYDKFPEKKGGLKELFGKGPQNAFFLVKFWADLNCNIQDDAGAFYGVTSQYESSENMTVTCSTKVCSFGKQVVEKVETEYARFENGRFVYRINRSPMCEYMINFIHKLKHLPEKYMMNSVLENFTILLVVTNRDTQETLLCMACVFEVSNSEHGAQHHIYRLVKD
smiles,measurement,setting,value
"COc1cc(/C=N/N(C)C2=NS(=O)(=O)c3cc(F)ccc32)ccc1O [Example 41, 4-[(E)-[(6-fluoro-1,1-dioxo-1,2-benzothiazol-3-yl)-methyl-hydrazono]-methyl]-2-methoxy-phenol]",Emax,,85%
same,IC50,,5740 nM
"COc1cc(/C=N/N(C)C2=NS(=O)(=O)c3cc(C)ccc32)ccc1O [Example 33, 2-methoxy-4-[(E)-[methyl-(6-methyl-1,1-dioxo-1,2-benzothiazol-3-yl)hydrazono]methyl]phenol]",Emax,,90%
same,IC50,,766 nM
"COc1ccc2c(c1)C(N(CCN1CCOCC1)/N=C/c1ccc(O)c(OC)c1)=NS2(=O)=O [Example 12, 2-methoxy-4-[(E)-[(5-methoxy-1,1-dioxo-1,2-benzothiazol-3-yl)-(2-morpholinoethyl)hydrazono]methyl]phenol]",Emax,,95%
same,IC50,,583 nM
"COc1ccc2c(c1)C(N(CCCN1CCOCC1)/N=C/c1ccc(O)c(OC)c1)=NS2(=O)=O [Example 13, 2-methoxy-4-[(E)-[(5-methoxy-1,1-dioxo-1,2-benzothiazol-3-yl)-(3-morpholinopropyl)hydrazono]methyl]phenol hydrochloride]",Emax,,95%
same,IC50,,2120 nM
"COc1cc(OC)c2c(c1)C(N(CCN1CCOCC1)/N=C/c1ccc(O)c(OC)c1)=NS2(=O)=O [Example 18, 4-[(E)-[(5,7-dimethoxy-1,1-dioxo-1,2-benzothiazol-3-yl)-(2-morpholino-ethyl)hydrazono]methyl]-2-methoxy-phenol hydrochloride]",Emax,,97%
same,IC50,,84 nM
"COc1cc(/C=N/N(C)C2=NS(=O)(=O)c3c(OC)cccc32)ccc1O [Example 21, 2-methoxy-4-[(E)-[(7-methoxy-1,1-dioxo-1,2-benzothiazol-3-yl)-methyl-hydrazono]methyl]phenol]",Emax,,89%
same,IC50,,123 nM
"COc1ccc(/C=N/N(C)C2=NS(=O)(=O)c3ccccc32)cc1OC [N-[(E)-(3,4-dimethoxyphenyl)methyleneamino]-N-methyl-1,1-dioxo-1,2-benzothiazol-3-amine, reference compound]",inhibition at 1000 µM,at 1 mM concentration,30%
"COc1cc(/C=N/N(CC(F)(F)F)C2=NS(=O)(=O)c3ccccc32)ccc1O [Example 37, 4-[(E)-[(1,1-dioxo-1,2-benzothiazol-3-yl)-(2,2,2-trifluoroethyl)-hydrazono]methyl]-2-methoxy-phenol]",Emax,,74%
same,IC50,,70800 nM
"COc1cc(/C=N/N(C)C2=NS(=O)(=O)c3c(OC)cc(C)cc32)ccc1O [Example 31, 2-methoxy-4-[(E)-[(7-methoxy-5-methyl-1,1-dioxo-1,2-benzothiazol-3-yl)-methyl-hydrazono]methyl]phenol]",Emax,,92%
same,IC50,,131 nM
"COc1cc(/C=N/N(CCO)C2=NS(=O)(=O)c3ccc(C)cc32)ccc1O [Example 27, 4-[(E)-[2-hydroxyethyl-(5-methyl-1,1-dioxo-1,2-benzothiazol-3-yl)hydrazono]methyl]-2-methoxy-phenol]",Emax,,91%
same,IC50,,891 nM
"COCCN(/N=C/c1ccc(O)c(OC)c1)C1=NS(=O)(=O)c2c(OC)cc(OC)cc21 [Example 19, 4-[(E)-[(5,7-dimethoxy-1,1-dioxo-1,2-benzothiazol-3-yl)-(2-methoxyethyl) hydrazono]methyl]-2-methoxy-phenol]",Emax,,92%
same,IC50,,626 nM
"COc1cc(/C=N/N(CCN2CCOCC2)C2=NS(=O)(=O)c3c(OC)cc(C)cc32)ccc1O [Example 32, 2-methoxy-4-[(E)-[(7-methoxy-5-methyl-1,1-dioxo-1,2-benzothiazol-3-yl)-(2-morpholinoethyl)hydrazono]methyl]phenol hydrochloride]",Emax,,95%
same,IC50,,139 nM
"COc1cc(/C=N/N(CCC(=O)O)C2=NS(=O)(=O)c3ccccc32)ccc1O [Example 8, 3-[(1,1-dioxo-1,2-benzothiazol-3-yl)-[(E)-(4-hydroxy-3-methoxy-phenyl)methyleneamino]amino]propanoic acid]",Emax,,94%
same,IC50,,1100 nM
"COCCN(/N=C/c1ccc(O)c(OC)c1)C1=NS(=O)(=O)c2c(OC)cccc21 [Example 24, 2-methoxy-4-[(E)-[(7-methoxy-1,1-dioxo-1,2-benzothiazol-3-yl)-(2-methoxyethyl)hydrazono]methyl]phenol]",Emax,,92%
same,IC50,,902 nM
"COc1cc(/C=N/N(CCCN(C)C)C2=NS(=O)(=O)c3ccccc32)ccc1O [Example 6, 4-[(E)-[3-(dimethylamino)propyl-(1,1-dioxo-1,2-benzothiazol-3-yl)hydrazono]methyl]-2-methoxy-phenol hydrochloride]",Emax,,95%
same,IC50,,7040 nM
"COc1cc(/C=N/N(CCN2CCOCC2)C2=NS(=O)(=O)c3ccccc32)ccc1O [Example 4, 4-[(E)-[(1,1-dioxo-1,2-benzothiazol-3-yl)-(2-morpholinoethyl)hydrazono]methyl]-2-methoxy-phenol hydrochloride]",Emax,,97%
same,IC50,,615 nM
"COc1ccc2c(c1)C(N(C)/N=C/c1ccc(O)c(OC)c1)=NS2(=O)=O [Example 35, 2-methoxy-4-[(E)-[(5-methoxy-1,1-dioxo-1,2-benzothiazol-3-yl)-methyl-hydrazono]methyl]phenol]",Emax,,77%
same,IC50,,354 nM
"COc1cc(/C=N/N(C2=NS(=O)(=O)c3ccccc32)C(C)C)ccc1O [Example 36, 4-[(E)-[(1,1-dioxo-1,2-benzothiazol-3-yl)-isopropyl-hydrazono]methyl]-2-methoxy-phenol]",Emax,,77%
same,IC50,,78000 nM
"COc1cc(/C=N/N(CCN2CCOCC2)C2=NS(=O)(=O)c3c(OC)cccc32)ccc1O [Example 23, 2-methoxy-4-[(E)-[(7-methoxy-1,1-dioxo-1,2-benzothiazol-3-yl)-(2-morpholinoethyl)hydrazono]methyl]phenol hydrochloride]",Emax,,99%
same,IC50,,305 nM
"COc1ccc2c(c1)S(=O)(=O)N=C2N(C)/N=C/c1ccc(O)c(OC)c1 [Example 40, 2-methoxy-4-[(E)-[(6-methoxy-1,1-dioxo-1,2-benzothiazol-3-yl)-methyl hydrazono]methyl]phenol]",Emax,,91%
same,IC50,,16200 nM
"COc1cc(/C=N/N(C2=NS(=O)(=O)c3ccccc32)c2ccc(C(=O)O)cc2)ccc1O [Example 38, 4-[(1,1-dioxo-1,2-benzothiazol-3-yl)-[(E)-(4-hydroxy-3-methoxy-phenyl)methyleneamino]amino]benzoic acid]",Emax,,99%
same,IC50,,105000 nM
"COc1cc(/C=N/N(CC(=O)NCCO)C2=NS(=O)(=O)c3ccccc32)ccc1O [Example 9, 2-[(1,1-dioxo-1,2-benzothiazol-3-yl)-[(E)-(4-hydroxy-3-methoxy-phenyl)methyleneamino]amino]-N-(2-hydroxyethyl)acetamide]",Emax,,96%
same,IC50,,11600 nM
"COCCN(/N=C/c1ccc(O)c(OC)c1)C1=NS(=O)(=O)c2ccc(OC)cc21 [Example 15, 2-methoxy-4-[(E)-[(5-methoxy-1,1-dioxo-1,2-benzothiazol-3-yl)-(2-methoxyethyl)hydrazono]methyl]phenol]",Emax,,89%
same,IC50,,2890 nM
"COc1ccc2c(c1)C(N(CCCO)/N=C/c1ccc(O)c(OC)c1)=NS2(=O)=O [Example 14, 4-[(E)-[3-hydroxypropyl-(5-methoxy-1,1-dioxo-1,2-benzothiazol-3-yl) hydrazono]methyl]-2-methoxy-phenol]",Emax,,90%
same,IC50,,1630 nM
"COc1cc(OC)c2c(c1)C(N(CCO)/N=C/c1ccc(O)c(OC)c1)=NS2(=O)=O [Example 17, 4-[(E)-[(5,7-dimethoxy-1,1-dioxo-1,2-benzothiazol-3-yl)-(2-hydroxyethyl) hydrazono]methyl]-2-methoxy-phenol]",Emax,,90%
same,IC50,,150 nM
"COc1cc(OC)c2c(c1)C(N(C)/N=C/c1ccc(O)c(OC)c1)=NS2(=O)=O [Example 16, 4-[(E)-[(5,7-dimethoxy-1,1-dioxo-1,2-benzothiazol-3-yl)-methyl-hydrazono]methyl]-2-methoxy-phenol]",Emax,,86%
same,IC50,,95 nM
"COc1cc(/C=N/N(CCO)C2=NS(=O)(=O)c3c(OC)cccc32)ccc1O [Example 22, 4-[(E)-[2-hydroxyethyl-(7-methoxy-1,1-dioxo-1,2-benzothiazol-3-yl) hydrazono]methyl]-2-methoxy-phenol]",Emax,,97%
same,IC50,,83 nM
"COCCN(/N=C/c1ccc(O)c(OC)c1)C1=NS(=O)(=O)c2c(OC)cc(C)cc21 [Example 30, 2-methoxy-4-[(E)-[2-methoxyethyl-(7-methoxy-5-methyl-1,1-dioxo-1,2-benzothiazol-3-yl)hydrazono]methyl]phenol]",Emax,,90%
same,IC50,,878 nM
"COc1cc(/C=N/N(C)C2=NS(=O)(=O)c3ccc(C)cc32)ccc1O [Example 25, 2-methoxy-4-[(E)-[methyl-(5-methyl-1,1-dioxo-1,2-benzothiazol-3-yl)hydrazono]methyl]phenol]",Emax,,90%
same,IC50,,568 nM
